# Results: US11052154B2, “Ras protein degradation inducing molecule and pharmaceutical composition” (Tokyo University of Science Foundation, priority 2016, dated 2021)
# Biological target: T1, endogenous wild-type H-Ras protein (Homo sapiens, UniProt P01112)
# T1 construct: an endogenous wild-type K-Ras protein and wild-type H-Ras protein; endogenous in cells; host or cells: HeLa
# Test: Degradation of endogenous wild-type H-Ras protein in HeLa cells, Western blot analysis
# Type: cell-based
# Settings: 48 hours after addition, vs control (DMSO), FIG. 5
# Description: In Example 6, degradation (knockdown) of an endogenous wild-type K-Ras protein and wild-type H-Ras protein in HeLa cells to which TUS-007 had been added was evaluated by Western blot analysis.
# HeLa cells were seeded in a 24-well plate at a cell density of 8×10^4 cells/well, and then cultured under conditions of 37° C. and 5 vol % CO2 for 16 hours.
# After 16 hours from cell seeding, TUS-007 was added to HeLa cells as follows. As a medium, a serum-free medium (37° C.) in which 1 mass % L-glutamine solution (Sigma-Aldrich) was added to D-MEM (high D-glucose, phenol red, sodium pyruvate (Wako Pure Chemical Industries, Ltd.)) was used. It is noted that the L-glutamine solution was added immediately before use. A DMSO solution containing TUS-007 was mixed with the medium so that the concentration of DMSO was 1 vol %, and added to each well at 500 μL/well, and cultured under conditions of 37° C. and 5 vol % CO2. As a control, DMSO was used. […]
# After electrophoresis, proteins were transferred to a PVDF membrane (Immobion™-P, Millipore) under conditions of 100 V and 2 hours using a tank-type blotting device and a transfer buffer (25 mM Tris-HCl, 195 mM glycine, 0.01% SDS, 15% methanol). […] Subsequently, the membrane was treated with a chemiluminescence reagent Immobilon™ Western (Millipore), and then chemiluminescence was detected using a lumino image analyzer LAS-3000 (FUJIFILM Corporation). […]
# T1 sequence (P01112 whole entry): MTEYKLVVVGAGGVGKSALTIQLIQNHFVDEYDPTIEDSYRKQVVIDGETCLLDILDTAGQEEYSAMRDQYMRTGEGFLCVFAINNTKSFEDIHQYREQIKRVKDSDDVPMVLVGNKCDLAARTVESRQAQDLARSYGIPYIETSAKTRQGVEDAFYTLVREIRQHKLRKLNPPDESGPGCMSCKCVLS
smiles,measurement,value
CCC(C)[C@H](NC(=O)CCCCCCNC(=O)[C@H](CC(C)C)NC(=O)CNC(=O)c1cc(Cl)ccc1Cl)C(=O)Nc1ccc2[nH]c(Cc3c[nH]c4ccccc34)nc2c1 (stereo in doubt) [TUS-007],amount of the endogenous wild-type H-Ras protein (Western blot),the amount of the endogenous wild-type K-Ras protein and wild-type H-Ras protein was reduced
